Assay results: ChEMBL document CHEMBL4184305, “Inhibition of histone lysine methyltransferases G9a and GLP by ejection of structural Zn(II)” (Bioorg Med Chem Lett, 2018)
Activity calls are given as the source filed them. No cut-off for these calls is given here.

Legend:
[1] = biological target: T1, Histone-lysine N-methyltransferase EHMT2 (Homo sapiens) (UniProt Q96KQ7); assay: Inhibition of wild type recombinant human histone lysine methyltransferase G9a (913 to 1193 residues) expressed in Escherichia coli Rosetta BL21 DE3 PlysS assessed as zinc ions ejection from Cys4-Zn finger at 2.5 to 100 uM after 500 to 3500 secs by FluoZin-3 based fluorescence assay
T1 sequence (whole entry): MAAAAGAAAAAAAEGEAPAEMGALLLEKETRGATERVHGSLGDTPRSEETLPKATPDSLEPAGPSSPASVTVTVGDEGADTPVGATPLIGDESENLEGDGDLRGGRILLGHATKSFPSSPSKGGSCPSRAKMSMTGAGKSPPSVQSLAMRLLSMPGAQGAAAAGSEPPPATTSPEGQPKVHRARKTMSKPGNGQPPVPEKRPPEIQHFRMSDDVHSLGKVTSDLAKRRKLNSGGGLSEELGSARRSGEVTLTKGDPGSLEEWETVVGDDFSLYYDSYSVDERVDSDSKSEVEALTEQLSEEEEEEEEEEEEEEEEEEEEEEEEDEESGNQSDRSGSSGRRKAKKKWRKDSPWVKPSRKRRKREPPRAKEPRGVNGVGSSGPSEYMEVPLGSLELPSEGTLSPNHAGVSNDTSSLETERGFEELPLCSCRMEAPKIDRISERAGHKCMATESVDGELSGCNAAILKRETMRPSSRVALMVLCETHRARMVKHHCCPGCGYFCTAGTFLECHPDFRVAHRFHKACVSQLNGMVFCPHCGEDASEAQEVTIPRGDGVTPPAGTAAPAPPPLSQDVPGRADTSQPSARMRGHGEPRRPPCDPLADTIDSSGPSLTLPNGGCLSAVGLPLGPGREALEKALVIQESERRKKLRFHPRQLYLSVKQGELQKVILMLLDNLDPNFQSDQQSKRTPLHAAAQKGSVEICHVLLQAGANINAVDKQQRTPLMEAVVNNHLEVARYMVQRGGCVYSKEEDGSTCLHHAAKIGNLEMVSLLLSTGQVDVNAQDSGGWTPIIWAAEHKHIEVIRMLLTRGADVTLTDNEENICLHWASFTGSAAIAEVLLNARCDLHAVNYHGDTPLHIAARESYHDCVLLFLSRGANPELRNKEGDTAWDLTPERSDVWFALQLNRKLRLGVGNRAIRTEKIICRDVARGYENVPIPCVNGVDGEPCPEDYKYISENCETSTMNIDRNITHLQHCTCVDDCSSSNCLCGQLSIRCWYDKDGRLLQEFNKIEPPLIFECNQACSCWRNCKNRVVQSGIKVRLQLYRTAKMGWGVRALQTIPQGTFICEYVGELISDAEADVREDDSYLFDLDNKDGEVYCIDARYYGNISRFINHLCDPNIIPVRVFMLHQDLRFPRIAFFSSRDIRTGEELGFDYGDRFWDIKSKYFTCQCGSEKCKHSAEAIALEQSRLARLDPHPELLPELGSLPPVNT

[2] = biological target: T2, Histone-lysine N-methyltransferase EHMT1 (Homo sapiens) (UniProt Q9H9B1); assay: Inhibition of wild type recombinant human histone lysine methyltransferase GLP (951 to 1235 residues) expressed in Escherichia coli Rosetta BL21 DE3 PlysS assessed as zinc ions ejection from Cys4-Zn finger at 2.5 to 100 uM after 500 to 3500 secs by FluoZin-3 based fluorescence assay
T2 sequence (whole entry): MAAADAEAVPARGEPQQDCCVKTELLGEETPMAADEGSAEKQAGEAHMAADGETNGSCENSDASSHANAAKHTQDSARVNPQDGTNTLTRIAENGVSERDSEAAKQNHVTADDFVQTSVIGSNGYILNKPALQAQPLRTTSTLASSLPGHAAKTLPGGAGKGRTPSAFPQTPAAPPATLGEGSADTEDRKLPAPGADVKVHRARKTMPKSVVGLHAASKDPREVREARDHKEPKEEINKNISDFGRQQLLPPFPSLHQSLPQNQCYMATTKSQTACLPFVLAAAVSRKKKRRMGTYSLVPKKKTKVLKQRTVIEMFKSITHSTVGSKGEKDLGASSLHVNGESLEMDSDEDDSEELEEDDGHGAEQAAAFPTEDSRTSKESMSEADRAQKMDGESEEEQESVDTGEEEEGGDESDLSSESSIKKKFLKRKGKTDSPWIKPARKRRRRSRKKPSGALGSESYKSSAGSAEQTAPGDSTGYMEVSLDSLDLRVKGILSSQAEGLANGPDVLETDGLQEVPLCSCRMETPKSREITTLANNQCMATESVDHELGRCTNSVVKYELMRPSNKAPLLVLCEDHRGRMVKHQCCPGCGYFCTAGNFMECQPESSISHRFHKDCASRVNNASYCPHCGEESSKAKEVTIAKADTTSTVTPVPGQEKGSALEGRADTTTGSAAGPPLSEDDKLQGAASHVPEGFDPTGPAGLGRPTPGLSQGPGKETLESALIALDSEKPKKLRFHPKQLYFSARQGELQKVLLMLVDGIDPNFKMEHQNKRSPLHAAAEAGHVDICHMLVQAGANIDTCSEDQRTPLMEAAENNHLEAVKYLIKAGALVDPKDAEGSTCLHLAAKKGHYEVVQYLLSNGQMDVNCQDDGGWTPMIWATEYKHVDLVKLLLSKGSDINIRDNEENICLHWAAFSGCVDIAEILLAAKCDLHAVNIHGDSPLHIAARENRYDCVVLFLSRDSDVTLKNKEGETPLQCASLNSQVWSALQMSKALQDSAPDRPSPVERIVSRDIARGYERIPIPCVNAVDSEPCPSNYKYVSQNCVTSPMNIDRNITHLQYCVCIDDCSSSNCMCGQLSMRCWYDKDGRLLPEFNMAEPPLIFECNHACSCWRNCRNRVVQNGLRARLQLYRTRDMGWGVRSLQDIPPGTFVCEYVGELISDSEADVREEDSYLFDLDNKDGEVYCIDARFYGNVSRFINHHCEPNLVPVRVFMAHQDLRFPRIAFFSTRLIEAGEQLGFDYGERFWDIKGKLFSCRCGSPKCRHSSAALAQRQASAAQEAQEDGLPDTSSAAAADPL

[3] = biological target: T3, Histone-lysine N-methyltransferase EHMT2 (Homo sapiens, UniProt Q96KQ7); assay: Inhibition of wild type recombinant human histone lysine methyltransferase G9a (913 to 1193 residues) expressed in Escherichia coli Rosetta BL21 DE3 PlysS using ARTKQTARKSTGGKA as substrate preincubated for 5 mins followed by substrate/SAM addition measured after 60 mins by MALDI-TOF MS analysis
T3 sequence (Q96KQ7 whole entry): T1 sequence (whole entry)

[4] = biological target: T2, Histone-lysine N-methyltransferase EHMT1 (Homo sapiens); assay: Inhibition of wild type recombinant human histone lysine methyltransferase GLP (951 to 1235 residues) expressed in Escherichia coli Rosetta BL21 DE3 PlysS assessed as zinc ions ejection from Cys4-Zn finger at 2.5 to 100 uM measured up to 1 min by FluoZin-3 based fluorescence assay
[5] = biological target: T1, Histone-lysine N-methyltransferase EHMT2 (Homo sapiens); assay: Inhibition of wild type recombinant human histone lysine methyltransferase G9a (913 to 1193 residues) expressed in Escherichia coli Rosetta BL21 DE3 PlysS assessed as zinc ions ejection from 3 types of Cys9-type Zn fingers at >25 uM after 1 hr by circular dichroism analysis

SMILES	inhibition [1]	inhibition [2]	IC50 [3] [µM]	inhibition [4]	inhibition [5]
CCN(CC)C(=S)SSC(=S)N(CC)CC	Active	Active	–	–	–
O=c1c2ccccc2[se]n1-c1ccccc1 [EBSELEN]	–	–	0.4	Active	Active
